Source: publication PMC11373198, “In vitro efficacy of next-generation dihydrotriazines and biguanides against babesiosis and malaria parasites” (Antimicrobial Agents and Chemotherapy, 2024)
Entries after “also recorded” stand apart in the source; their conditions may differ. Read-outs that look alike come from different tables or passages of the source.

How the values were obtained:
B. duncani (WA-1) [1] = assay: In vitro growth inhibition of B. duncani in human erythrocytes (SYBR Green-I); assay type: cell-based, Babesia duncani; details: continuous in vitro culture in human erythrocytes, read-out: IC50 B. duncani
HCT116 = assay: Cytotoxicity on human cell line (MTT); assay type: cell-based; details: HCT-116, 72 h
Description: (§1) HeLa, HepG2, HEK293, and HCT116 cell lines were obtained from the American Type Culture Collection (ATCC) and maintained in Dulbecco’s modified Eagle’s medium (DMEM) (Invitrogen 11995–065) containing 25 mM glucose, 1 mM sodium pyruvate, and supplemented with 5 mM HEPES, 10% FBS, and penicillin-streptomycin (50 U/mL penicillin, 50 µg/mL streptomycin). Cells were seeded in a 96-well tissue culture plate (20,000 cells per well) and allowed to adhere for 24 hours, after which they were treated with a 12-step 2-fold serial dilution of each drug starting at 1 mM as the highest final concentration. Cells maintained in the medium supplemented with either 0.1% or 10% DMSO were used as negative and positive vehicle controls, respectively. The plates were incubated at 37 °C for 72 h, after which each well was incubated with 0.5 mg/mL of MTT reagent (MP Chemicals #02102227) for 4 h in the dark at 37 °C. The formazan crystals formed by living cells were solubilized with the addition of 100 µL of DMSO to each well. We measured the OD590nm using a SpectraMax plate reader. From the obtained OD values, percent cell viability was estimated by normalizing to the mean of 10% DMSO wells (set as 100% toxicity) and mean of the vehicle control wells (set as 0% toxicity). Dose-response curves were plotted using GraphPad Prism version 9.1.2.

HEK293 = assay: Cytotoxicity on human cell line (MTT); assay type: cell-based; details: 72 h
Description: as §1

HeLa = assay: Cytotoxicity on human cell line (MTT); assay type: cell-based; details: 72 h
Description: as §1

HepG2 = assay: Cytotoxicity on human cell line (MTT); assay type: cell-based; details: 72 h
Description: as §1

B. duncani DHFR-TS [2] = biological target: T1, B. duncani DHFR-TS (Babesia duncani, UniProt A0AAD9UQZ8); assay: Enzyme inhibition assay: DHFR activity of purified DHFR-TS; assay type: biochemical
Description: (§2) The inhibition of DHFR activity with selected JPC derivatives was measured as previously described ([59]). Briefly, the purified enzyme (0.1 µM) (supporting information) (Fig. S7) was incubated with increasing concentrations of JPC-2067 or JPC-2056 in a reaction buffer containing 300 µM DHF and 300 µM NADPH. OD340 reduction rate (OD340/min) was measured for further calculation. The % inhibition was calculated using the formula:
(§3) =1−((OD340/min)sample−(OD340/min)negative control)/((OD340/min)positive control−(OD340/min)negative control)
(§4) The IC50 was determined from a sigmoidal dose-response curve using GraphPad Prism version 9.1.2.
(§5) Dihydrofolate reductase-thymidylate synthase (DHFR-TS) gene from B. duncani (BdDHFR-TS BdWA1_001462) and B. microti (BmDHFR-TS BMR1_02g03680) were cloned into pMAL-c4x by GenScript USA Inc. Both enzymes were expressed as fusion proteins with N’-terminal maltose binding protein (MBP) tag. Constructs of pMAL-c4x-BdDHFR-TS and pMAL-c4x-BmDHFR-TS were transformed by heat shock into E. coli BL-21(DE3). E. coli BL-21(DE3) harboring pMAL-c4x-DHFR-TS was grown overnight in 2 ml LB ampicillin (100 µg/mL). Cultures were diluted 100-fold in fresh LB medium with 0.2% glucose and grown to A600 of ~0.5 at 37°C. DHFR-TS expression was induced by the addition of 0.5 mM isopropyl thiogalactoside (IPTG) followed by growth for overnight at 16°C or at room temperature (RT). The cells were harvested by centrifugation (8,000 × g × 10 min, 4°C), washed by resuspension in water, and re-centrifuged. Cells were used directly for purification or kept frozen at -20°C. Prior to enzyme purification, cells were re-suspended in binding buffer containing 25 mM Tris-HCl pH 8, 500 mM NaCl, 0.5% glycerol, and 50mM L-arginine. Cells were supplemented benzonase DNAse (250U/µl) and 3-((3-cholamidopropyl) dimethylammonio)-1-propanesulfonate (CHAPS) (0.002%) and were disrupted by sonication on ice using Omni Sonic Ruptor 400 Ultrasonic Homogenizer (15-sec burst at 70% amplitude, 3 times, with 30-sec cooling intervals). A soluble supernatant was prepared by centrifugation (16,000 × g × 20 min) of the cells sonicate.
(§6) Recombinant DHFR-TSs were purified from the clear cell extract supernatant using amylose resin (NEB), methotrexate-agarose beads, and in some cases size exclusion chromatography (SEC). Briefly, soluble supernatant was incubated with amylose beads in binding buffer with gentle agitation for 1h at 4°C. Following enzyme adsorption, the affinity matrix was transferred to a column and unbound proteins were removed by washing with binding buffer. Purified enzymes were eluted with elution buffer containing 10 mM maltose. Amylose elution fractions were loaded onto MTX-agarose resin and purified DHFR-TS enzymes were eluted using 2 mM dihydrofolic acid (DHF). […]

B. microti DHFR-TS [3] = biological target: T2, B. microti DHFR-TS (Babesia microti, UniProt A0A1R4AAV1); assay: as above; assay type: biochemical
Description: as §2, §3, §4, §5, §6

[4] = tested on: human cell lines (HepG2, HCT-116, HEK-293, and HeLa); assay: Cytotoxicity on human cell lines, average / overall, and therapeutic index; assay type: cell-based; details: up to 900 µM, HCT-116, HepG2, HEK-293
B. duncani DHFR-TS [5] = biological target: T1, B. duncani DHFR-TS; parameters: method as in PMID 37055610; details: recent studies; cited from earlier work
B. microti DHFR-TS [6] = biological target: T2, B. microti DHFR-TS; parameters: method as in PMID 37055610; details: recent studies; cited from earlier work
B. duncani = tested on: B. duncani; parameters: method as in PMID 37055610; details: previous studies; read-out: IC50 against B. duncani; cited from earlier work
[7] = in vivo; cited from earlier work
B. duncani (WA-1) [8] = assay: In vivo efficacy in mouse model of lethal B. duncani infection; parameters: species or system C3H/HeJ mice
Description: The finding that JPC-2067 is effective against B. duncani in vitro led us to investigate the activity of its prodrug JPC-2056 in the mouse model of lethal infection (C3H/HeJ mice) ([57]). […] To evaluate the efficacy of JPC-2056, two groups of 5 female mice each were infected with 1 × 10^4 B. duncani-infected erythrocytes and at day 1 post-infection (DPI-1) received either a vehicle (PEG-400) or 30 mg/kg of JPC-2056 administered orally once a day for 10 days. […] However, parasitemia in these mice continued to increase over time reaching peak levels at DPI-12 (Fig. 3A and B). These animals succumbed to lethal B. duncani infection at DPI-13 (Fig. 3A and C).
(§7) Both C3H/HeJ and CB17/SCID mice aged 5–6 weeks (4 to 5 mice per group in each of the studies described herein) were injected intravenously with (1 × 10^4 iRBCs) of B duncani (WA-1) and B. microti (LabS1) parasites, respectively. The infected mice were treated by oral gavage over 10 days (DPI −1 to 10). During the treatment, each mouse received 100 µL of either vehicle (PEG-400) or prodrug JPC-2056 (30 mg/kg). Percent parasitemia was determined by counting at least 3,000 RBCs from Giemsa-stained […] blood smears.

B. microti (LabS1) = assay: In vivo efficacy in SCID mouse model of B. microti infection; parameters: species or system CB17/SCID mice
Description: Building on the promising efficacy of JPC-2056 against B. duncani parasites in vivo, we extended our investigation to assess the efficacy of this compound against B. microti (ATCC LabS1) in the SCID (severely combined immunodeficient) mouse model of infection following inoculation with a 1 × 10^4 infected erythrocytes.
as §7

[9] = 0.1 µM enzyme, 300 µM DHF, 300 µM NADPH
[10] = 30 mg/kg orally once a day for 10 days

T1 sequence (A0AAD9UQZ8 entry or part of it): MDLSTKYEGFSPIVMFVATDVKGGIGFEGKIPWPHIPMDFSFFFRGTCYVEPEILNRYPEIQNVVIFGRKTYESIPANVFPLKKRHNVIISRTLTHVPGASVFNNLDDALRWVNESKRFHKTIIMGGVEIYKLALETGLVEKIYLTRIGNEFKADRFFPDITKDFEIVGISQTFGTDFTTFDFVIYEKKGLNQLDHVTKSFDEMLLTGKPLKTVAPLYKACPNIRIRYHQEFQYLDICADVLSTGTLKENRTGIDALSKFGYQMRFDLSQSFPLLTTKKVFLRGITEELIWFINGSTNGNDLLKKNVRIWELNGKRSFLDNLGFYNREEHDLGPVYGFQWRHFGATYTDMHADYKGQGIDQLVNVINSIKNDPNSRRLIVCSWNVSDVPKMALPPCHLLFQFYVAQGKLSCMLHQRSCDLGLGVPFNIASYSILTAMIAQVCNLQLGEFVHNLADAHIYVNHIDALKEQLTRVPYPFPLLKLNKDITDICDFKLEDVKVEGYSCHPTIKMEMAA
T2 sequence (A0A1R4AAV1 entry or part of it): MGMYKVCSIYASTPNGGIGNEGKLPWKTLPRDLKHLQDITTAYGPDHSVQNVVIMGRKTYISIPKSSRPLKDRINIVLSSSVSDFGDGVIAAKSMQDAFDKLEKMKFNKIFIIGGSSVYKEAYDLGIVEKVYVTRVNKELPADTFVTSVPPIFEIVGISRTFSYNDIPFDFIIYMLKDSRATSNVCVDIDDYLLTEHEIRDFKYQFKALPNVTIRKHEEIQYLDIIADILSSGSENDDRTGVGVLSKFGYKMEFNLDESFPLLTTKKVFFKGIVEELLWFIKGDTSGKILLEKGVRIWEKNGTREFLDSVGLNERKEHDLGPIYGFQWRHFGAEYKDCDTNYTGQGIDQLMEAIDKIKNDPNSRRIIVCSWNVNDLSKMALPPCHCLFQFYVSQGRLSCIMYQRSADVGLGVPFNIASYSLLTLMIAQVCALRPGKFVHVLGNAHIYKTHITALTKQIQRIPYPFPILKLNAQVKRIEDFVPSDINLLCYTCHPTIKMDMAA

| SMILES | IC50 (B. duncani (WA-1) [1]; Babesia duncani, Erythrocyte) [µM] | IC50 (B. duncani (WA-1) [1]) [µM] | IC50 (HCT116) [µM] | IC50 (HEK293) [µM] | IC50 (HeLa) [µM] | IC50 (HepG2) [µM] | cytotoxicity (effect on human cell lines) [4] | further results |
| --- | --- | --- | --- | --- | --- | --- | --- | --- |
| CC1(C)NC(=N)NC(=N)N1OCCCOc1ccc(OC(F)(F)F)cc1Cl [JPC-2067] | 0.0089 ± 0.002 | 0.00893 | 1000 | 1000 | > 900 | 1150 | no discernible effect | EC50 (B. duncani DHFR-TS [2]; [9]): 0.001 µM; EC50 (B. microti DHFR-TS [3]; [9]): 0.0147 µM |
| CC1(C)N=C(N)N=C(N)N1OCCCOc1cc(Cl)c(Cl)cc1Cl [WR99210] |  |  |  |  |  |  |  | inhibition of B. duncani DHFR-TS activity (B. duncani DHFR-TS [5]): inhibits the activity; inhibition of B. microti DHFR-TS activity (B. microti DHFR-TS [6]): inhibits the activity; IC50 (B. duncani): 0.0005 µM; bioavailability [7]: poor bioavailability; gastrointestinal tolerability [7]: caused gastrointestinal complications |
| CC(C)NC(=N)NC(=N)NOCCCOc1ccc(OC(F)(F)F)cc1Cl [JPC-2056] | 0.8694 ± 0.004 | 0.869 | 1000 | 1000 | > 900 | 1000 | no discernible effect | inhibitory activity against B. duncani DHFR-TS (B. duncani DHFR-TS [2]; Fig. S3A): no discernible inhibitory activity; inhibitory activity against B. microti DHFR-TS (B. microti DHFR-TS [3]; Fig. S3B): no discernible inhibitory activity; day animals succumbed to lethal infection (B. duncani (WA-1) [8]; [10]): 13 DPI; parasite emergence (B. duncani (WA-1) [8]; [10]): delay in parasite emergence; parasitemia compared to vehicle-treated mice (B. duncani (WA-1) [8]; 30 mg/kg orally once a day for 10 days (DPI-1 to 10)): reduced peak parasitemia; adverse effects (B. microti (LabS1); 30 mg/kg once a day for 10 days): without observable adverse effects; outcome of B. microti infection (B. microti (LabS1); 30 mg/kg once a day for 10 days (DPI-1 to 10)): clearance of infection with no parasites detected up to DPI-45; also recorded: elimination of parasites |
